Test results reported in patent US11162959B2, “Time-resolved fluorescent immunochromatographic test strip for detecting vancomycin as well as preparation method and application thereof” (BEIJING DIAGREAT BIOTECHNOLOGIES CO., LTD., priority 2019, dated 2021).

Tested on: vancomycin monoclonal antibody
Test: Cross-reaction rate measurement of the test strip of Embodiment 1 (interference testing in human serum containing 20 μg/mL vancomycin)
Type: binding, Balb/c mouse
Procedure: 20 ul of sample is accurately pipetted into 180 ul of sample diluent and mixed fully.
80 uL of sample solution to be tested is accurately pipetted into a test strip loading well with a micropipette, and reaction is carried out at 20° C. for 15 min. The test strip is inserted into a load carrier of a fluorescence detector, an item to be tested is selected by touching a display screen, a “Detection Start” button is pressed, the fluorescence detector automatically scans the test strip, and a test result is read through the display screen of an instrument or printed.
After the test is completed, the instrument obtains the ratio of the time-resolved fluorescent intensity of the detection area on the test strip to the time-resolved fluorescent intensity of the quality control area, and calculates the content of vancomycin in the sample to be tested according to the following formula. Y=(A−D)/[1+(x/C)^B]+D
Several vancomycin analogs and common drugs are selected for interference testing.

[1] = test concentration 1,000 μg/mL, added to human serum with vancomycin 20 μg/mL

Row | Compound | Cross reaction rate [1] [%] | other results
1 | CC(=O)Oc1ccccc1C(=O)O [Aspirin] | <0.001 | –
2 | NC(=O)N1c2ccccc2C=Cc2ccccc21 [Carbamazepine] | <0.001 | –
3 | C[C@H]1O[C@@H](O[C@H]2[C@@H](O)C[C@H](O[C@H]3[C@@H](O)C[C@H](O[C@H]4CC[C@@]5(C)[C@H](CC[C@@H]6[C@@H]5C[C@@H](O)[C@]5(C)[C@@H](C7=CC(=O)OC7)CC[C@]65O)C4)O[C@@H]3C)O[C@@H]2C)C[C@H](O)[C@@H]1O [Digoxin] | <0.001 | –
4 | CC(C)C[C@@H](N)C(=O)N[C@H]1C(=O)N[C@@H](CC(N)=O)C(=O)N[C@H]2C(=O)N[C@H]3C(=O)N[C@H](C(=O)N[C@H](C(=O)O)c4cc(O)cc(O)c4-c4cc3ccc4O)[C@H](O)c3ccc(c(Cl)c3)Oc3cc2cc(c3O[C@@H]2O[C@H](CO)[C@@H](O)[C@H](O)[C@H]2O[C@H]2C[C@](C)(N)[C@H](O)[C@H](C)O2)Oc2ccc(cc2Cl)[C@H]1O [Norvancomycin] | – | Cross reaction rate (test concentration 100 μg/mL, added to human serum with vancomycin 20 μg/mL): <1%
5 | O=C1NC(=O)C(c2ccccc2)(c2ccccc2)N1 [Phenytoin] | <0.001 | –
6 | O=C(O)c1ccccc1O [Salicylic acid] | <0.001 | –
7 | Cn1c(=O)c2[nH]cnc2n(C)c1=O [Theophylline] | <0.001 | –
8 | CCCC(CCC)C(=O)O [Valproic acid] | <0.001 | –
9 | CN[C@H](CC(C)C)C(=O)N[C@H]1C(=O)N[C@@H](CC(N)=O)C(=O)N[C@H]2C(=O)N[C@H]3C(=O)N[C@H](C(=O)N[C@H](C(=O)O)c4cc(O)cc(O)c4-c4cc3ccc4O)[C@H](O)c3ccc(c(Cl)c3)Oc3cc2cc(c3O[C@@H]2OC(CO)[C@@H](O)[C@H](O)[C@H]2O[C@H]2C[C@](C)(N)[C@H](O)[C@H](C)O2)Oc2ccc(cc2Cl)[C@H]1O.Cl (stereo partly drawn) [Vancomycin] | – | Cross reaction rate (test concentration 20 μg/mL, human serum sample): 100%
